In test [1] the test system is U937 human histiocytic leukemia cell line. Put plainly: Inhibition of TSQ induced necroptosis in U937 cells (CellTitre-Glo). The following applies: Homo sapiens, U-937, TSQ cocktail (TNF, Smac mimetic, Q-VD-OPh), 48 hours, read-out: Inhibition of TSQ-induced necroptosis (IC50 cell-based assay). Summed up: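 Necroptosis was induced with TNF-Fc (100 ng/ml), Smac mimetic (500 nM) and Q-VD-OPh (10 μM) in 20000 U937 cells/well exposed to a 10-point, 3-fold compound series (top 36 μM, 0.3% DMSO). ATP luminescence read after 48 h; 4-parameter fit gave IC50. Parallel TSQ-free wells assessed compound toxicity.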

In the next test the target is human RIPK3 (Homo sapiens (Human), UniProt Q9Y572). Put plainly: KINOMEscan binding assay, human RIPK3. The conditions noted are these: equilibrium dissociation constant. The method in brief: (§1)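 Compound dilutions (11 points, 3-fold, mostly from 30,000 nM, 1% DMSO final) competed with immobilized ligand for DNA- or phage-tagged protein, and bead-bound protein was measured by qPCR. Kd values came from Hill-equation fits with slope −1 (Levenberg-Marquardt).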

The target in another test is human MLKL (full length) (Homo sapiens (Human), UniProt Q8NB16). Put plainly: KINOMEscan binding assay, human MLKL (full length). The conditions noted are these: equilibrium dissociation constant. The method in brief:
as §1

The next test relates to U937 cells. Put plainly: Counter screen: U937 cell viability without TSQ cocktail (off-target effect). The following applies: Homo sapiens, U-937, compound without TSQ cocktail, read-out: Off-target effect (IC50 cell-based assay). Set-up: species or system human. Summed up:
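Off-target viability counter screen: compounds titrated 36 μM down 1:3 over 10 points (0.3% DMSO) on 20,000 U937 cells/well, no TNF/Smac mimetic/Q-VD-OPh added, 48 h incubation. ATP-based CellTiter-Glo luminescence, four-parameter logistic IC50.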
In general terms: The purpose of a counterscreen is to sort out artefacts and off-target activity.

A further test deals with human RIPK1 (Homo sapiens (Human), UniProt Q13546). Put plainly: KINOMEscan binding assay, human RIPK1. The following applies: equilibrium dissociation constant. Summed up: as §1
Chain of human RIPK1 (Q13546 whole entry): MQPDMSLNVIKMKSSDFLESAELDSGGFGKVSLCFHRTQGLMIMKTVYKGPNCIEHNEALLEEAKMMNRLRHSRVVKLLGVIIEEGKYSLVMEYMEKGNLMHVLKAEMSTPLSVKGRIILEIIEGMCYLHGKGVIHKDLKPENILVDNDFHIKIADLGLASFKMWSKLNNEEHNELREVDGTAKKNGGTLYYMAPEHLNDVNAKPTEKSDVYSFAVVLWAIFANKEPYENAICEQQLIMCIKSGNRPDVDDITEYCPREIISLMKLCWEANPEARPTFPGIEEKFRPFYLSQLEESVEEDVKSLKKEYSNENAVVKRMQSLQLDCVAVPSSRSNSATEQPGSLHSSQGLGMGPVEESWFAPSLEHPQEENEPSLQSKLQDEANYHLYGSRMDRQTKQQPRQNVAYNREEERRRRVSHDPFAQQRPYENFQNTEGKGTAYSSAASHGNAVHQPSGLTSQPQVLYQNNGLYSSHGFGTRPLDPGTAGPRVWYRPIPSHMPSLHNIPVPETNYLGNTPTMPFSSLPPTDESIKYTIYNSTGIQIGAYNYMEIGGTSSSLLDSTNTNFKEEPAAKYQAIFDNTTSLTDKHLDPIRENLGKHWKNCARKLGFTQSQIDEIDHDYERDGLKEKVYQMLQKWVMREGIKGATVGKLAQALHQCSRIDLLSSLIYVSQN

Chain of human MLKL (full length) (Q8NB16 whole entry): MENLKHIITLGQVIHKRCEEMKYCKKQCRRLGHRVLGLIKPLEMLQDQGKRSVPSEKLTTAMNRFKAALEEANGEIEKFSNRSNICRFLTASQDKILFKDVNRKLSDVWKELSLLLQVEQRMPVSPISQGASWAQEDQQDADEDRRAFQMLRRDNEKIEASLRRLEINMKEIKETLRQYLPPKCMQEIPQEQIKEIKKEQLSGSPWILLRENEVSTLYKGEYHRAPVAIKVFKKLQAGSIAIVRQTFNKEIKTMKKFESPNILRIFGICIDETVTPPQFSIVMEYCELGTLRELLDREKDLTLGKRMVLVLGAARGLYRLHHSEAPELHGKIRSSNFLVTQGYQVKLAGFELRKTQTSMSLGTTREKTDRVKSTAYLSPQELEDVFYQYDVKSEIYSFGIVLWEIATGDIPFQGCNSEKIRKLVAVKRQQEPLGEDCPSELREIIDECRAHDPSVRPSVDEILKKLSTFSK
Chain of human RIPK3 (Q9Y572 whole entry): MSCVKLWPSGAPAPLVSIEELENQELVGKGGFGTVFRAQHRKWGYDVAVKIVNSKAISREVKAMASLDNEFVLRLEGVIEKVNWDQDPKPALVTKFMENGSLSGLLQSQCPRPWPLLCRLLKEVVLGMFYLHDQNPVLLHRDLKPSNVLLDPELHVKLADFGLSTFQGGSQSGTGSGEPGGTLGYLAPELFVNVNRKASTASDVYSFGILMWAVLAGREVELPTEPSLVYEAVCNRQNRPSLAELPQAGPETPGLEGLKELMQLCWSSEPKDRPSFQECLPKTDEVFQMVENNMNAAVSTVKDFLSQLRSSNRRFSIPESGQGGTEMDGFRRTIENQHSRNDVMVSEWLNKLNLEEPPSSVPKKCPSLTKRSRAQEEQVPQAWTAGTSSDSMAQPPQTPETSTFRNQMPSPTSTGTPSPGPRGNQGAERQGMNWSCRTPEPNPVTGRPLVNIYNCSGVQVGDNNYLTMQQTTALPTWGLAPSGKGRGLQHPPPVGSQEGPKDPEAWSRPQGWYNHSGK

Take `C[C@H](Oc1cc(-c2nn(C)c3c(-c4cnn(C5COC5)c4)cnc(N)c23)ccc1NS(=O)(=O)C(F)F)c1ccc(F)cc1` [Compound 38, (S)-N-(4-(4-amino-1-methyl-7-(1-(oxetan-3-yl)-1H-pyrazol-4-yl)-1H-pyrazolo[4,3-c]pyridin-3-yl)-2-(1-(4-fluorophenyl)ethoxy)phenyl)-1,1-difluoromethanesulfonamide]: the IC50 was under 0.01 µM in test [1] and over 10 µM with U937 cells. For the same molecule, the Kd was over 10 µM at human RIPK3, under 0.001 µM on human MLKL (full length) and over 10 µM on human RIPK1.

`C[C@H](Oc1cc(-c2nn(C)c3c(-c4cnn(C5CC6(CNC6)C5)c4)cnc(N)c23)ccc1NS(=O)(=O)C(F)F)c1ccc(F)cc1` [Compound 78, (S)-N-(4-(7-(1-(2-azaspiro[3.3]heptan-6-yl)-1H-pyrazol-4-yl)-4-amino-1-methyl-1H-pyrazolo[4,3-c]pyridin-3-yl)-2-(1-(4-fluorophenyl)ethoxy)phenyl)-1,1-difluoromethanesulfonamide]: the IC50 in test [1] is 0.01 to 1 µM; in the test on U937 cells, over 10 µM. Moreover, the Kd is over 10 µM at human RIPK3, under 0.001 µM on human MLKL (full length) and over 10 µM on human RIPK1.

Take `C[C@H](Oc1cc(-c2nn(C)c3c(-c4cnn(CC5CCCN5)c4)cnc(N)c23)ccc1NS(=O)(=O)C(F)F)c1ccc(F)cc1` (stereo partly drawn) [Compound 88, N-(4-(4-amino-1-methyl-7-(1-(pyrrolidin-2-ylmethyl)-1H-pyrazol-4-yl)-1H-pyrazolo[4,3-c]pyridin-3-yl)-2-((S)-1-(4-fluorophenyl)ethoxy)phenyl)-1,1-difluoromethanesulfonamide]: the IC50 in test [1] is 0.01 to 1 µM; with U937 cells it was over 10 µM. Also, the figures for the Kd on human RIPK3, at human MLKL (full length) and on human RIPK1 were over 10 µM, under 0.001 µM and over 10 µM, respectively.

In the case of `Cn1nc(-c2ccc(NS(=O)(=O)C(F)F)c(OC3(c4ccc(F)cc4)CC3)c2)c2c(N)ncc(-c3cnn(C4CCOCC4)c3)c21` [Compound 140, N-(4-(4-amino-1-methyl-7-(1-(tetrahydro-2H-pyran-4-yl)-1H-pyrazol-4-yl)-1H-pyrazolo[4,3-c]pyridin-3-yl)-2-(1-(4-fluorophenyl)cyclopropoxy)phenyl)-1,1-difluoromethanesulfonamide], the IC50 in test [1] is 0.01 to 1 µM; with U937 cells, over 10 µM. In addition, the values for the dissociation constant Kd on human RIPK3, at human MLKL (full length) and on human RIPK1 were over 10 µM, 0.001 to 0.1 µM and over 10 µM, respectively.

As for `C[C@H](Oc1cc(-c2cnn3c(-c4cnn(C5CCOCC5)c4)cnc(N)c23)ccc1NS(=O)(=O)C(F)F)c1ccc(F)cc1` [Compound 36, (S)-N-(4-(4-amino-7-(1-(tetrahydro-2H-pyran-4-yl)-1H-pyrazol-4-yl)pyrazolo[1,5-a]pyrazin-3-yl)-2-(1-(4-fluorophenyl)ethoxy)phenyl)-1,1-difluoromethanesulfonamide], the IC50 in test [1] was under 0.01 µM; in the test on U937 cells, over 10 µM. For the same molecule, the Kd was over 10 µM at human RIPK3, under 0.001 µM at human MLKL (full length) and over 10 µM at human RIPK1.

As to `C[C@H](Oc1cc(-c2nn(C)c3c(-c4ccnc(C(F)(F)F)c4)cnc(N)c23)ccc1NS(=O)(=O)C(F)F)c1ccc(F)cc1` [Compound 23, (S)-N-(4-(4-amino-1-methyl-7-(2-(trifluoromethyl)pyridin-4-yl)-1H-pyrazolo[4,3-c]pyridin-3-yl)-2-(1-(4-fluorophenyl)ethoxy)phenyl)-1,1-difluoromethanesulfonamide], the results for the IC50 (in test [1]; in the test with U937 cells) were 1 to 10 µM and over 10 µM, respectively. For the same molecule, the Kd is over 10 µM at human RIPK3, 0.001 to 0.1 µM on human MLKL (full length) and over 10 µM at human RIPK1.

Consider `COc1cc(-c2cnc(N)c3c(-c4ccc(NS(=O)(=O)C(F)F)c(O[C@@H](C)c5ccc(F)cc5)c4)nn(C)c23)ccn1` [Compound 27, (S)-N-(4-(4-amino-7-(2-methoxypyridin-4-yl)-1-methyl-1H-pyrazolo[4,3-c]pyridin-3-yl)-2-(1-(4-fluorophenyl)ethoxy)phenyl)-1,1-difluoromethanesulfonamide], for which the IC50 was 0.01 to 1 µM in test [1] and over 10 µM in the test on U937 cells. Besides, the Kd on human RIPK3 was over 10 µM; on human MLKL (full length) it was 0.001 to 0.1 µM; at human RIPK1, over 10 µM.

In the case of `C[C@H](Oc1cc(-c2nn(C)c3c(-c4cnn(C5(C#N)CC5)c4)cnc(N)c23)ccc1NS(=O)(=O)C(F)F)c1ccc(F)cc1` [Compound 96, (S)-N-(4-(4-amino-7-(1-(1-cyanocyclopropyl)-1H-pyrazol-4-yl)-1-methyl-1H-pyrazolo[4,3-c]pyridin-3-yl)-2-(1-(4-fluorophenyl)ethoxy)phenyl)-1,1-difluoromethanesulfonamide], the values for the IC50 (in test [1]; in the test on U937 cells) were 0.01 to 1 µM and over 10 µM, respectively. The values for the Kd on human RIPK3, on human MLKL (full length) and at human RIPK1 were over 10 µM, under 0.001 µM and over 10 µM, respectively.

Turning to `C[C@H](Oc1cc(-c2nn(C)c3c(-c4ccn(C)c4)cnc(N)c23)ccc1NS(=O)(=O)C(F)F)c1ccc(F)cc1` [Compound 126, (S)-N-(4-(4-amino-1-methyl-7-(1-methyl-1H-pyrrol-3-yl)-1H-pyrazolo[4,3-c]pyridin-3-yl)-2-(1-(4-fluorophenyl)ethoxy)phenyl)-1,1-difluoromethanesulfonamide], the half-maximal inhibitory concentration (IC50) in test [1] is 0.01 to 1 µM; in the test with U937 cells it was over 10 µM. The Kd is over 10 µM at human RIPK3, 0.001 to 0.1 µM on human MLKL (full length) and over 10 µM on human RIPK1.

In the case of `C[C@H](Oc1cc(-c2nn(C)c3c(-c4ccnc(C(F)F)c4)cnc(N)c23)ccc1NS(=O)(=O)C(F)F)c1ccc(F)cc1` [Compound 57, (S)-N-(4-(4-amino-7-(2-(difluoromethyl)pyridin-4-yl)-1-methyl-1H-pyrazolo[4,3-c]pyridin-3-yl)-2-(1-(4-fluorophenyl)ethoxy)phenyl)-1,1-difluoromethanesulfonamide], the IC50 in test [1] is 0.01 to 1 µM; with U937 cells, over 10 µM. Moreover, the Kd was over 10 µM on human RIPK3, 0.001 to 0.1 µM on human MLKL (full length) and over 10 µM on human RIPK1.

Turning to `C[C@H](Oc1cc(-c2nn(C)c3c(-c4cccc(Cl)c4)cnc(N)c23)ccc1NS(=O)(=O)C(F)F)c1ccc(F)cc1` [Compound 84, (S)-N-(4-(4-amino-7-(3-chlorophenyl)-1-methyl-1H-pyrazolo[4,3-c]pyridin-3-yl)-2-(1-(4-fluorophenyl)ethoxy)phenyl)-1,1-difluoromethanesulfonamide], the concentration for half-maximal inhibition (IC50) in test [1] is 1 to 10 µM; in the test with U937 cells, over 10 µM. Further, the dissociation constant (Kd) is over 10 µM at human RIPK3, 0.001 to 0.1 µM at human MLKL (full length) and over 10 µM at human RIPK1.

With `C[C@H](Oc1cc(-c2nn(C)c3c(-c4cnn(C5CCCNCC5)c4)cnc(N)c23)ccc1NS(=O)(=O)C(F)F)c1ccc(F)cc1` (stereo partly drawn) [Compound 74, N-(4-(4-amino-7-(1-(azepan-4-yl)-1H-pyrazol-4-yl)-1-methyl-1H-pyrazolo[4,3-c]pyridin-3-yl)-2-((S)-1-(4-fluorophenyl)ethoxy)phenyl)-1,1-difluoromethanesulfonamide], the IC50 in test [1] is 0.01 to 1 µM; in the test with U937 cells it was over 10 µM. Further, the equilibrium dissociation constant (Kd) at human RIPK3 was over 10 µM; at human MLKL (full length), under 0.001 µM; on human RIPK1 it was over 10 µM.

Take `C[C@H](Oc1cc(-c2nn(C)c3c(C4=CCCN(C)C4)cnc(N)c23)ccc1NS(=O)(=O)C(F)F)c1ccc(F)cc1` [Compound 55, (S)—N-(4-(4-amino-1-methyl-7-(1-methyl-1,2,5,6-tetrahydropyridin-3-yl)-1H-pyrazolo[4,3-c]pyridin-3-yl)-2-(1-(4-fluorophenyl)ethoxy)phenyl)-1,1-difluoromethanesulfonamide]: the IC50 in test [1] was 1 to 10 µM; in the test on U937 cells it was over 10 µM. The Kd is over 10 µM at human RIPK3, under 0.001 µM at human MLKL (full length) and over 10 µM at human RIPK1.

Regarding `C[C@H](Oc1cc(-c2nn(C)c3c(-c4cnn(C5CCOC5)c4)cnc(N)c23)ccc1NS(=O)(=O)C(F)F)c1ccc(F)cc1` (stereo partly drawn) [Compound 41, N-(4-(4-amino-1-methyl-7-(1-(tetrahydrofuran-3-yl)-1H-pyrazol-4-yl)-1H-pyrazolo[4,3-c]pyridin-3-yl)-2-((S)-1-(4-fluorophenyl)ethoxy)phenyl)-1,1-difluoromethanesulfonamide], the figures for the IC50 (in test [1]; in the test on U937 cells) were under 0.01 µM and over 10 µM, respectively. Further, the dissociation constant (Kd) was over 10 µM at human RIPK3, under 0.001 µM on human MLKL (full length) and over 10 µM at human RIPK1.

As to `C[C@H](Oc1cc(-c2nn(C)c3c(-c4ccc(C(F)(F)F)nc4)cnc(N)c23)ccc1NS(=O)(=O)C(F)F)c1ccc(F)cc1` [Compound 117, (S)-N-(4-(4-amino-1-methyl-7-(6-(trifluoromethyl)pyridin-3-yl)-1H-pyrazolo[4,3-c]pyridin-3-yl)-2-(1-(4-fluorophenyl)ethoxy)phenyl)-1,1-difluoromethanesulfonamide], the half-maximal inhibitory concentration (IC50) in test [1] was 0.01 to 1 µM; with U937 cells, over 10 µM. The Kd was over 10 µM on human RIPK3, 0.001 to 0.1 µM at human MLKL (full length) and over 10 µM at human RIPK1.

The term IC50 denotes the concentration at which inhibition is half-maximal. What is called Kd is the concentration at which binding is half-saturated. A low value points to tighter binding.
